Reference: US9714249B2 (Novartis AG, priority 2013, dated 2017)

Assays:
[1] = system: K-562 cells; experiment: Cell growth inhibition assay (CellTiter-Glo), K-562; format: cell-based, human; details: K-562, 4 days; for GI50: Homo sapiens, K562, 96 h, half-maximal growth inhibition; for K-562 TGI: total growth inhibition
Protocol: (§1) The human leukemia cell lines MV-4-11, THP-1 and K-562 were employed to characterize the effect of BET inhibitors on cellular proliferation and viability. Cells were obtained from the American Type Culture Collection (ATCC) and cultured at 37° C. in a humidified 5% CO2 incubator in the following media: MV-4-11: DMEM high glucose (Animed #1-26F01-I), 10% FCS (Animed #2-01F26-I), 4 mM L-Glutamine (Animed #5-10K50), 1 mM Sodium Pyruvate (Animed # G03625P), 1× Penicillin-Streptomycin (Animed # F12478P); K-562: Iscove's MEM (Animed #1-28F16-I), 10% FCS (Animed #2-01F26-I), 4 mM L-Glutamine (Animed #5-10K50), 1× Penicillin-Streptomycin (Animed # F12478P); THP-1: RPMI-1640 (Animed #1-41F01-I), 10% FCS (Animed #2-01F26-I), 2 mM L-Glutamine (Animed #5-10K50), 10 mM HEPES (Animed #5-31F100), 1 mM Sodium Pyruvate (Animed # G03625P), 1× Penicillin-Streptomycin (Animed # F12478P). The AML lines MV-4-11 and THP-1 are very sensitive to BET inhibitors and show massive cell death upon BET inhibition (Zuber et al., Nature, 478 (2011), 524-8). Compound-mediated suppression of cell proliferation/viability was assessed by quantification of cellular ATP levels using the CellTiter-Glo (CTG) reagent (Promega). Briefly, cells were seeded in 20 μl fresh medium into 384-well plates, followed by addition of 5 μl medium containing compound dilutions at 5-fold their final intended concentration. Dose-response effects were assessed by 3-fold serial dilutions of the test compound, starting at 10 μM. Following incubation of the cells for 4 days at 37° C. and 5% CO2, the effect of inhibitors on cell viability was quantified following addition of 20 μl CTG and luminescence quantification (integration time: 100 ms) as per vendor manual, using a correspondingly equipped Tecan M200 multi-mode platereader (TECAN, Switzerland). For data analysis, the assay background value determined in wells containing medium, but no cells, was subtracted from all data points. To enable differentiation of cytotoxic from cytostatic compounds, the number of viable cells is assessed relative to that observed at the time of compound addition using a separate cell plate (day 0). The effect of a particular test compound concentration on cell proliferation/viability is expressed as percentage of the background- and day 0-corrected luminescence reading obtained for cells treated with vehicle only (DMSO, 0.1% final concentration), which is set as 100%, whereas that luminescence reading for wells containing medium is set as −100%. Compound concentrations leading to half-maximal (1050) and total growth inhibition (TGI) were determined using standard four parameter curve fitting.

[2] = biological target: BRD2 (His-Brd2(60-472)) (Homo sapiens (Human), UniProt P25440); experiment: TR-FRET in-vitro binding assay for BRD2; details: acetyl-histone H4 peptide
Chain of BRD2 (His-Brd2(60-472)) (P25440 60-472, species assumed): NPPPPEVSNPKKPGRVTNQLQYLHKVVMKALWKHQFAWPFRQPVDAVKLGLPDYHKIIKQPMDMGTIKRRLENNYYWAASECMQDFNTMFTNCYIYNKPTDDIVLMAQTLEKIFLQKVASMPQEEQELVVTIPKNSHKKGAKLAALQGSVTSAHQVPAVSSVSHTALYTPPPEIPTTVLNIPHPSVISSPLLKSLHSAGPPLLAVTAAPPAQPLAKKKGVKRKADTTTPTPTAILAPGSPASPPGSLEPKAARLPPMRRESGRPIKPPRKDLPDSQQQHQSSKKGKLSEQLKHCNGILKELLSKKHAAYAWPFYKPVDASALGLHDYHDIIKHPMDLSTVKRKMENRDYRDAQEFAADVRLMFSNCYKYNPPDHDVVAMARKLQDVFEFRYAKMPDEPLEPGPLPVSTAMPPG
Protocol: (§2) All assays were performed in 384 well microtiter plates. Each assay plate contained 8-point serial dilutions for 40 test compounds, plus 16 high- and 16 low controls. Liquid handling and incubation steps were done on an Innovadyne Nanodrop Express equipped with a robotic arm (Thermo CatX, Perkin Elmer/Caliper Twister II) and an incubator (Liconic STX40, Thermo Cytomat 2C450). The assay plates were prepared by addition of 50 nl per well of compound solution in 90% DMSO HummingBird nanodispenser (Zinsser Analytic). The assay was started by stepwise addition of 4.5 μl per well of bromo domain protein (50 mM HEPES, pH 7.5, 0.005% Tween20, 0.1% BSA, 50 mM NaCl, 45 nM His-Brd2(60-472) or 45 nM His-Brd3(20-477) or 45 nM His-Brd4(44-477) all proteins produced in-house) and 4.5 μl per well of peptide solution (50 mM HEPES, pH 7.5, 0.005% Tween20, 0.1% BSA, 50 mM NaCl, 60 nM acetyl-histone H4 (AcK 5, 8, 12, 16) (Biosyntan GmbH)). Reactions were incubated at 30° C. for 35 minutes. Subsequently 4.5 μl per well detection mix (50 mM HEPES, pH 7.5, 0.005% Tween20, 0.1% BSA, 50 mM NaCl, 3 nM Eu-labeled anti-His6 antibody, 21 nM streptavidin-allophycocyanin) were added. After 35 minutes incubation at 30° C., plates were measured in a Perkin Elmer EnVision multilabel reader. Concentrations causing 50% inhibition (1050) values were determined from percent inhibition values at different compound concentrations by non-linear regression analysis.
(§3) Test compounds were dissolved in DMSO (10 mM) and transferred into 1.4 mL flat bottom or V-shaped Matrix tubes carrying a unique 2D matrix. The stock solutions were stored at […] if not used immediately. For the test procedure the vials were defrosted and identified by a scanner whereby a working sheet was generated that guided the subsequent working steps. Compound dilutions were made in 96 well plates. This format enabled the assay of maximally 40 individual test compounds at 8 concentrations (single points) including 4 reference compounds, if desired (known BET inhibitors from the prior art, for this and other assays of the type disclosed herein). The dilution protocol included the production of “pre-dilution plates”, “master plates” and “assay plates”.
(§4) Pre-dilution plates: 96 polypropylene well plates were used as pre-dilution plates. A total of 4 pre-dilution plates were prepared including 10 test compounds each on the plate positions A1-A10, one standard compound at A11 and one DMSO control at A12. All dilution steps were done on a HamiltonSTAR robot. Master plates: 30 μL of individual compound dilutions including standard compound and controls of the 4 “pre-dilution plates” were transferred into a 384 “master plate” including the following concentrations 10000, 3003, 1000, 300, 100, 30, 10 and 3 μM, respectively in 90% of DMSO. Assay plates: Identical “assay plates” were then prepared by pipetting 50 nL each of compound dilutions of the “master plates” into 384-well “assay plates” by means of a HummingBird 384-channel dispenser. These plates were used directly for the assay which was performed in a total volume of 13.55 μL. This led to a final compound concentration of 37, 11, 3.7, 1.1, 0.37, 0.11, 0.037 and 0.011 μM and a final DMSO concentration of 0.37% in the assay. Cell Growth Inhibition Assay

[3] = system: THP-1 cells; experiment: Cell growth inhibition assay (CellTiter-Glo), THP-1; format: cell-based, human; details: THP-1, 4 days; for GI50: Homo sapiens, 96 h, half-maximal growth inhibition; for THP-1 TGI: total growth inhibition
Protocol: as §1

[4] = biological target: BRD3 (His-Brd3(20-477)) (Homo sapiens (Human), UniProt Q15059); experiment: TR-FRET in-vitro binding assay for BRD3; details: acetyl-histone H4 peptide
Chain of BRD3 (His-Brd3(20-477)) (Q15059 20-477, species assumed): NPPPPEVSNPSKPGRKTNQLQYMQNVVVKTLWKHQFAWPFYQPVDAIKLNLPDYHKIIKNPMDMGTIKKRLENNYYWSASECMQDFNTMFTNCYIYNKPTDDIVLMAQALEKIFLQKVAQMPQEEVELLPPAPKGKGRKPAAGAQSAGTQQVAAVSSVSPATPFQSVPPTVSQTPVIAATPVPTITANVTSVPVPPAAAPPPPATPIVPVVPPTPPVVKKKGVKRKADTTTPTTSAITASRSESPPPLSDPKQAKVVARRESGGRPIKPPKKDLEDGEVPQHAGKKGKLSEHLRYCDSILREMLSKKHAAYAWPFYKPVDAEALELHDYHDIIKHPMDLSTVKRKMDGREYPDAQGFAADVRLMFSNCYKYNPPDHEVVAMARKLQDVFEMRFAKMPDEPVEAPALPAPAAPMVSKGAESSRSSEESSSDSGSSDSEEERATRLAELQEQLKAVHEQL
Protocol: as §2, §3, §4

[5] = system: MV-4-11 cells; experiment: Cell growth inhibition assay (CellTiter-Glo), MV-4-11; format: cell-based, human; details: MV-4-11, 4 days; for GI50: Homo sapiens, MV4-11, 96 h, half-maximal growth inhibition; for MV-4-11 TGI: total growth inhibition
Protocol: as §1

[6] = biological target: CREBBP bromodomain (His-CREBBP (1081-1197)) (Homo sapiens (Human), UniProt Q92793); experiment: AlphaScreen in-vitro binding assay for CREBBP; details: acetyl-histone H4 peptide
Chain of CREBBP bromodomain (His-CREBBP (1081-1197)) (Q92793 1081-1197): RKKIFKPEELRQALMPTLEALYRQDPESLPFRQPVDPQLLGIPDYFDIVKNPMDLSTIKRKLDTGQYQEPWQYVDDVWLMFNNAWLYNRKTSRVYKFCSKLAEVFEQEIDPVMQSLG
Protocol: In order to assess bromodomain selectivity, we set up a binding assay using the bromodomain encoded by the CREBBP gene. […] Reactions were incubated at 30° C. for 35 minutes. Subsequently 4.5 μl per well detection mix (50 mM HEPES, pH 7.5, 0.005% Tween20, 0.02% BSA, 150 mM NaCl, 45 μg/ml Ni-chelate acceptor beads, 45 μg/ml streptavidin-donor beads) (Perkin Elmer)) were added. After 60 minutes incubation at room temperature, plates were measured in a Perkin Elmer EnVision multilabel reader. IC50 values were determined from percent inhibition values at different compound concentrations by non-linear regression analysis.
as §3
Pre-dilution plates: 96 polypropylene well plates were used as pre-dilution plates. A total of 4 pre-dilution plates were prepared including 10 test compounds each on the plate positions A1-A10, one standard compound at A11 and one DMSO control at A12. All dilution steps were done on a HamiltonSTAR robot. […] These plates were used directly for the assay which was performed in a total volume of 13.55 μL. […] Cell Growth Inhibition Assay

[7] = biological target: BRD4-NUT-fusion (Homo sapiens (Human), UniProt O60885+Q86Y26); experiment: Nut-foci formation assay (HCS) in HCC2494 NUT midline carcinoma cells; format: cell-based; details: 24 hours, nuclear BRD4-NUT foci, immunofluorescence
Protocol: Compound-mediated inhibition of BRD4 activity was monitored by quantification of the number and intensity of nuclear BRD4-NUT foci using automated immunofluorescence microscopy. Briefly, 5000 cells in 20 μl fresh medium were seeded into Poly-D-Lysine-precoated 384-well plates and incubated overnight at 37° C. and 5% CO2, followed by addition of 5 μl medium containing compound dilutions at 5-fold their final intended concentration. Dose-response effects were assessed by 3-fold serial dilutions of the test compound, starting at 10 μM. […] Assay plates were imaged using the appropriate filter sets on the Cellomics VTi automated fluorescence microscopy platform (ThermoFisher Scientific) and the population average of the number of NUT-foci per nucleus is quantified using the Cellomics Spot Detection BioApplication image analysis algorithm (ThermoFisher Scientific). The effect of a particular test compound concentration on NUT-foci number and intensity is expressed as percentage of the value obtained for cells treated with vehicle only (DMSO, 0.1% final concentration), which was set as 100.

| Structure (SMILES) | GI50 [1] [nM] | K-562 TGI [1] [nM] | IC50 [2] [nM] | GI50 [3] [nM] | THP-1 TGI [3] [nM] | IC50 [4] [nM] | GI50 [5] [nM] | MV-4-11 TGI [5] [nM] | IC50 [6] [nM] | IC50 [7] [nM] |
| --- | --- | --- | --- | --- | --- | --- | --- | --- | --- | --- |
| Cc1cc(N2C(=O)c3c(C4CC4)n[nH]c3C2c2ccc(Cl)cc2)cn(C)c1=O (stereo not drawn) [Example 23, 6-(4-chlorophenyl)-3-cyclopropyl-5-(1,5-dimethyl-6-oxo-1,6-dihydropyridin-3-yl)-5,6-dihydropyrrolo[3,4-c]pyrazol-4(1H)-one] | 170 | >10000 | 52 | 59.4 | 128.5 | 49 | 25.6 | 48 | 3300 | – |
| Cc1[nH]nc2c1C(=O)N(c1cc(C)c(=O)n(C)c1)[C@@H]2c1ccc(Cl)cc1 [Example 27, (R)-6-(4-chlorophenyl)-5-(1,5-dimethyl-6-oxo-1,6-dihydropyridin-3-yl)-3-methyl-5,6-dihydropyrrolo[3,4-c]pyrazol-4(2H)-one] | 112 | >10000 | – | 56.2 | 115 | 27 | 27.1 | 49.6 | 1200 | – |
| Cc1[nH]nc2c1C(=O)N(c1cc(C)c(=O)n(C)c1)C2c1ccc(Cl)cc1 (stereo not drawn) [Example 9, 6-(4-chlorophenyl)-5-(1,5-dimethyl-6-oxo-1,6-dihydropyridin-3-yl)-3-methyl-5,6-dihydropyrrolo[3,4-c]pyrazol-4(2H)-one] | 322 | >10000 | – | 88.5 | 206 | 67 | 51 | 72.1 | 3000 | – |
| CCOc1ncccc1-n1nc(C)c2c1C(c1ccc(Cl)cc1)N(c1cc(C)c(=O)n(C)c1)C2=O (stereo not drawn) [Example 18a, 6-(4-chlorophenyl)-5-(1,5-dimethyl-6-oxo-1,6-dihydropyridin-3-yl)-1-(2-ethoxypyridin-3-yl)-3-methyl-5,6-dihydropyrrolo[3,4-c]pyrazol-4(1H)-one] | 574 | >10000 | – | 89.6 | 175 | – | 89.3 | 101 | – | 66.6 |
| COc1ncccc1-n1nc(C)c2c1C(c1ccc(Cl)cc1)N(c1cc(C)c(=O)n(C)c1)C2=O (stereo not drawn) [Example 17a, 6-(4-chlorophenyl)-5-(1,5-dimethyl-6-oxo-1,6-dihydropyridin-3-yl)-1-(2-methoxypyridin-3-yl)-3-methyl-5,6-dihydropyrrolo[3,4-c]pyrazol-4(1H)-one] | 293 | >10000 | – | 102 | 175 | – | 58.1 | 87.9 | – | 56.1 |
